This passage reports IC50 results from US11401278B2, “Macrocyclic indole derivatives” (The Broad Institute, Inc., priority 2017, dated 2022).

The structures appear in SMILES notation. Counter-ions that a name gives are not always drawn.

The target of this assay is MCL-1 (Homo sapiens (Human), UniProt Q07820, K194A/K197A/R201A). In words: Protein-protein interaction assay MCL-1/Noxa BH3 peptide (MCL-1 assay, TR-FRET). It is filed as binding. As to conditions: MBP-MCL-1 / Noxa BH3 peptide, median. The essentials:
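TR-FRET competition assay read at 665/620 nm, with a Noxa BH3 tracer peptide (1 nM) plus Eu-cryptate anti-MBP and XL665-streptavidin. Compounds (0.1 nM-20 μM, duplicates) were pre-equilibrated 10 min at 22° C with 1 nM MBP-MCL-1 (173-329) in Tris pH 7, NaCl, KF, DTT buffer, then incubated 1 h at 22° C and overnight at 4° C. IC50 came from 4-parameter regression.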

Chain of MCL-1 (Q07820 whole entry K194A/K197A/R201A, looked up): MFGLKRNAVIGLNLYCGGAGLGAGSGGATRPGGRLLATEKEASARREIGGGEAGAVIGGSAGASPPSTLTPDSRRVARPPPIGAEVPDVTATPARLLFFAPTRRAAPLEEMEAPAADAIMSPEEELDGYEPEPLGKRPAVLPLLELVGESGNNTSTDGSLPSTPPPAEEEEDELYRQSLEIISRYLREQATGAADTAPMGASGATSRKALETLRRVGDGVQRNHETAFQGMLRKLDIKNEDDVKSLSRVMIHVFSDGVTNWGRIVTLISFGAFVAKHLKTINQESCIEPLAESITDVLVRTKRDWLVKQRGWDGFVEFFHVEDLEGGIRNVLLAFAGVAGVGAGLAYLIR

Consider `Cc1c2c(nn1C)CN(CCN1CCOCC1)S(=O)(=O)CCCn1c(C(=O)O)c(CCCOc3cccc4ccccc34)c3cccc-2c31` (racemic) [Example 1, (rac)-2,3-Dimethyl-14-[2-(morpholin-4-yl)ethyl]-7-{3-[(naphthalen-1-yl)oxy]propyl}-13,13-dioxo-10,11,12,13,14,15-hexahydro-2H-13λ^6-pyrazolo[3′,4′:4,5][1,2,8]thiadiazacycloundecino-[6,7,8-hi]indole-8-carboxylic acid], for which the IC50 (in general, the concentration that gives 50% inhibition) is 6.2 nM.
In turn, `Cc1c2c(nn1C)CN(C)S(=O)(=O)CCCn1c(C(=O)O)c(CCCOc3cccc4ccccc34)c3ccc(Cl)c-2c31` (racemic) [Example 4, (rac)-4-Chloro-2,3,14-trimethyl-7-{3-[(naphthalen-1-yl)oxy]propyl}-13,13-dioxo-10,11,12,13,14,15-hexahydro-2H-13λ^6-pyrazolo[3′,4′:4,5][1,2,8]thiadiazacycloundecino-[6,7,8-hi]indole-8-carboxylic acid] displayed an IC50 of 1.2 nM.
The result for `CCc1c2c(nn1C)CN(C)S(=O)(=O)CCCn1c(C(=O)O)c(CCCOc3cccc4cc(F)ccc34)c3ccc(F)c-2c31` (racemic) [Example 7, (rac)-12-Ethyl-13-fluoro-1-(3-((6-fluoronaphthalen-1-yl)oxy)propyl)-8,11-dimethyl-5,6,9,11-tetrahydro-4H,8H-pyrazolo[3′,4′:4,5][1]thia[2,8]diazacycloundecino[6,7,8-hi]indole-2-carboxylic acid 7,7-dioxide] reads 1.3 nM; that for `CCc1c2c(nn1C)CN(CCCN1CCCC1=O)S(=O)(=O)CCCn1c(C(=O)O)c(CCCOc3cccc4ccccc34)c3cccc-2c31` (racemic) [Example 13, (rac)-12-Ethyl-11-methyl-1-(3-(naphthalen-1-yloxy)propyl)-8-(3-(2-oxopyrrolidin-1-yl)propyl)-5,6,9,11-tetrahydro-4H,8H-pyrazolo[3′,4′:4,5][1]thia[2,8]diazacycloundecino[6,7,8-hi]indole-2-carboxylic acid 7,7-dioxide], 6.3 nM.
In the case of `CCc1c2c(nn1C)CN(CCN1CCCCC1)S(=O)(=O)CCCn1c(C(=O)O)c(CCCOc3cccc4ccccc34)c3cccc-2c31` (racemic) [Example 14, (rac)-12-Ethyl-11-methyl-1-(3-(naphthalen-1-yloxy)propyl)-8-(2-(piperidin-1-yl)ethyl)-4,5,6,8,9,11-hexahydropyrazolo[3′,4′:4,5][1,2,8]thiadiazacycloundecino[6,7,8-hi]indole-2-carboxylic acid 7,7-dioxide 2,2,2-trifluoroacetic acid salt], half-maximal inhibition (IC50) required 9.8 nM.
In the case of `CCc1c2c(nn1C)CN(CCCN1CCOCC1)S(=O)(=O)CCCn1c(C(=O)O)c(CCCOc3cccc4ccccc34)c3cccc-2c31` (racemic) [Example 15, (rac)-12-Ethyl-11-methyl-8-(3-morpholinopropyl)-1-(3-(naphthalen-1-yloxy)propyl)-4,5,6,8,9,11-hexahydropyrazolo[3′,4′:4,5][1,2,8]thiadiazacycloundecino[6,7,8-hi]indole-2-carboxylic acid 7,7-dioxide 2,2,2-trifluoroacetic acid salt] it was 5.6 nM; in that of `CCc1c2c(nn1C)CN(CCCN1CCCC1)S(=O)(=O)CCCn1c(C(=O)O)c(CCCOc3cccc4ccccc34)c3cccc-2c31` (racemic) [Example 16, (rac)-12-Ethyl-11-methyl-1-(3-(naphthalen-1-yloxy)propyl)-8-(3-(pyrrolidin-1-yl)propyl)-5,6,9,11-tetrahydro-4H,8H-pyrazolo[3′,4′:4,5][1]thia[2,8]diazacycloundecino[6,7,8-hi]indole-2-carboxylic acid 7,7-dioxide], 5.7 nM.
The result for `CCc1c2c(nn1C)CNS(=O)(=O)CCCn1c(C(=O)O)c(CCCOc3cccc4ccccc34)c3cccc-2c31` (racemic) [Example 17, (rac)-12-Ethyl-11-methyl-1-(3-(naphthalen-1-yloxy)propyl)-4,5,6,8,9,11-hexahydropyrazolo[3′,4′:4,5][1,2,8]thiadiazacycloundecino[6,7,8-hi]indole-2-carboxylic acid 7,7-dioxide] reads 8.1 nM; that for `CCc1c2c(nn1C)C(C)N(C)S(=O)(=O)CCCn1c(C(=O)O)c(CCCOc3cccc4ccccc34)c3cccc-2c31` (racemic) [Example 18, 12-Ethyl-8,9,11-trimethyl-1-(3-(naphthalen-1-yloxy)propyl)-5,6,9,11-tetrahydro-4H,8H-pyrazolo[3′,4′:4,5][1]thia[2,8]diazacycloundecino[6,7,8-hi]indole-2-carboxylic acid 7,7-dioxide (Mixture of Stereoisomers)], 7.8 nM; that for `Cc1c2c(nn1C)CN(C)S(=O)(=O)CCCn1c(C(=O)O)c(CCCOc3cccc4cc(F)ccc34)c3ccc(F)c-2c31` (racemic) [Example 25, (rac)-13-Fluoro-1-(3-((6-fluoronaphthalen-1-yl)oxy)propyl)-8,11,12-trimethyl-5,6,9,11-tetrahydro-4H,8H-pyrazolo[3′,4′:4,5][1]thia[2,8]diazacycloundecino[6,7,8-hi]indole-2-carboxylic acid 7,7-dioxide], 1.7 nM.
As to `Cc1c2c(nn1C)CN(C)S(=O)(=O)CCCn1c(C(=O)O)c(CCCOc3cccc4ccccc34)c3ccc(F)c-2c31` (racemic) [Example 26, (rac)-13-Fluoro-8,11,12-trimethyl-1-(3-(naphthalen-1-yloxy)propyl)-5,6,9,11-tetrahydro-4H,8H-pyrazolo[3′,4′:4,5][1]thia[2,8]diazacycloundecino[6,7,8-hi]indole-2-carboxylic acid 7,7-dioxide], the IC50 came out at 3.6 nM.
In the case of `Cc1c2c(nn1C)CN(C)S(=O)(=O)CCCn1c(C(=O)O)c(CCCOc3cccc4c3CCC4)c3ccc(F)c-2c31` (racemic) [Example 27, (rac)-1-(3-((2,3-Dihydro-1H-inden-4-yl)oxy)propyl)-13-fluoro-8,11,12-trimethyl-5,6,9,11-tetrahydro-4H,8H-pyrazolo[3′,4′:4,5][1]thia[2,8]diazacycloundecino[6,7,8-hi]indole-2-carboxylic acid 7,7-dioxide] it was 2.1 nM.
On to `Cc1cc(OCCCc2c(C(=O)O)n3c4c(c(F)ccc24)-c2c(nn(C)c2C)CN(C)S(=O)(=O)CCC3)cc(C)c1Cl` (racemic) [Example 28, (rac)-1-(3-(4-Chloro-3,5-dimethylphenoxy)propyl)-13-fluoro-8,11,12-trimethyl-5,6,9,11-tetrahydro-4H,8H-pyrazolo[3′,4′:4,5][1]thia[2,8]diazacycloundecino[6,7,8-hi]indole-2-carboxylic acid 7,7-dioxide], for which the half-inhibitory concentration (IC50) is 4 nM.
`Cc1c2c(nn1C)CN(C)S(=O)(=O)CCCn1c(C(=O)O)c(CCCOc3cccc4c3CCCC4)c3ccc(F)c-2c31` (racemic) [Example 29, (rac)-13-Fluoro-8,11,12-trimethyl-1-(3-((5,6,7,8-tetrahydronaphthalen-1-yl)oxy)propyl)-5,6,9,11-tetrahydro-4H,8H-pyrazolo[3′,4′:4,5][1]thia[2,8]diazacycloundecino[6,7,8-hi]indole-2-carboxylic acid 7,7-dioxide]: inhibition was half-maximal at 3.1 nM (IC50).
In the case of `CCc1c2c(nn1C)CN(C)S(=O)(=O)CCCn1c(C(=O)O)c(CCCOc3cccc4ccccc34)c3ccc(F)c-2c31` (racemic) [Example 31, (rac)-12-Ethyl-13-fluoro-8,11-dimethyl-1-(3-(naphthalen-1-yloxy)propyl)-5,6,9,11-tetrahydro-4H,8H-pyrazolo[3′,4′:4,5][1]thia[2,8]diazacycloundecino[6,7,8-hi]indole-2-carboxylic acid 7,7-dioxide] it was 3.6 nM.
The result for `CCc1c2c(nn1C)CN(C)S(=O)(=O)CCCn1c(C(=O)O)c(CCCOc3cccc4c3CCC4)c3ccc(F)c-2c31` (racemic) [Example 32, (rac)-1-(3-((2,3-Dihydro-1H-inden-4-yl)oxy)propyl)-12-ethyl-13-fluoro-8,11-dimethyl-5,6,9,11-tetrahydro-4H,8H-pyrazolo[3′,4′:4,5][1]thia[2,8]diazacycloundecino[6,7,8-hi]indole-2-carboxylic acid 7,7-dioxide] reads 1.5 nM.
The result for `CCc1c2c(nn1C)CN(C)S(=O)(=O)CCCn1c(C(=O)O)c(CCCOc3cc(C)c(Cl)c(C)c3)c3ccc(F)c-2c31` (racemic) [Example 33, (rac)-1-(3-(4-Chloro-3,5-dimethylphenoxy)propyl)-12-ethyl-13-fluoro-8,11-dimethyl-5,6,9,11-tetrahydro-4H,8H-pyrazolo[3′,4′:4,5][1]thia[2,8]diazacycloundecino[6,7,8-hi]indole-2-carboxylic acid 7,7-dioxide] reads 4.2 nM; that for `CCc1c2c(nn1C)CN(C)S(=O)(=O)CCCn1c(C(=O)O)c(CCCOc3cccc4c3CCCC4)c3ccc(F)c-2c31` (racemic) [Example 34, (rac)-12-Ethyl-13-fluoro-8,11-dimethyl-1-(3-((5,6,7,8-tetrahydronaphthalen-1-yl)oxy)propyl)-5,6,9,11-tetrahydro-4H,8H-pyrazolo[3′,4′:4,5][1]thia[2,8]diazacycloundecino[6,7,8-hi]indole-2-carboxylic acid 7,7-dioxide], 3.2 nM.
Compound `CCc1c2c(nn1C)CN(C)S(=O)(=O)CCCn1c(C(=O)O)c(CCCOc3ccc(F)c4ccccc34)c3ccc(F)c-2c31` (racemic) [Example 35, (rac)-12-Ethyl-13-fluoro-1-(34(4-fluoronaphthalen-1-yl)oxy)propyl)-8,11-dimethyl-5,6,9,11-tetrahydro-4H,8H-pyrazolo[3′,4′:4,5][1]thia[2,8]diazacycloundecino[6,7,8-hi]indole-2-carboxylic acid 7,7-dioxide] registered an IC50 of 3.5 nM.
